Legend:
Assay type in all cases: cell-based
EGFR WT [1] = biological target: T1, EGFR WT (Homo sapiens, UniProt P00533); assay: Activity for inhibiting EGFR (Table A), EGFR WT; details: read-out: EGFR WT, potency code (IC50)
EGFR V3 [2] = biological target: T2, EGFR V3 (Homo sapiens, UniProt P00533, DELINS30-297G); assay: Activity for inhibiting EGFR (Table A), EGFR V3 (EGFR-Viii); details: read-out: EGFR V3, potency code (IC50)
T2 construct: expressed in transfected cells; host or cells: BaF3 (murine pro-B), retroviral pMXs-IRES-Blasticidin
T2 sequence (P00533 with tags, fused parts or gaps DELINS30-297G): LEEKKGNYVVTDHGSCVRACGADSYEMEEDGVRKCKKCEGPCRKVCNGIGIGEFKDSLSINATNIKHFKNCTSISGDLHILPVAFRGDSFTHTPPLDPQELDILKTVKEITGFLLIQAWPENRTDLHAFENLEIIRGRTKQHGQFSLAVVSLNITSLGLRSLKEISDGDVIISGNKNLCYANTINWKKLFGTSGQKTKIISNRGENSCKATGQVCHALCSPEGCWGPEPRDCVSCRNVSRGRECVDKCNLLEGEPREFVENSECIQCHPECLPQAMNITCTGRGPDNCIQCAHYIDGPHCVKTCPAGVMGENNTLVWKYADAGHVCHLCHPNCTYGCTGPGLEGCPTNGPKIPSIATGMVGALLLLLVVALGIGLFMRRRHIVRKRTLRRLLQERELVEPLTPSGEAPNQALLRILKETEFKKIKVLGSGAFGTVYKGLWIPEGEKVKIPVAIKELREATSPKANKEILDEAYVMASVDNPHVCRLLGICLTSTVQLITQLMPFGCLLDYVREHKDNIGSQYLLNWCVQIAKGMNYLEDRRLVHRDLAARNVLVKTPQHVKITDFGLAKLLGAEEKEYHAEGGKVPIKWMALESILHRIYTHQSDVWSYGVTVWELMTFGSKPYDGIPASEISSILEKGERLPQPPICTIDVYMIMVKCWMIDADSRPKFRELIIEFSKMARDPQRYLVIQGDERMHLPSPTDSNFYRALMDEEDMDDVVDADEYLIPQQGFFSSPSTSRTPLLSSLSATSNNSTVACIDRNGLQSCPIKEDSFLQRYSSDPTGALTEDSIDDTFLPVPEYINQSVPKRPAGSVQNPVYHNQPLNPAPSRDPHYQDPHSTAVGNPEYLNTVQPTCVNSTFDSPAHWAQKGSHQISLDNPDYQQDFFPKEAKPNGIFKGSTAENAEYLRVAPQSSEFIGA

HER2 S310F [3] = biological target: T3, HER2 S310F (Homo sapiens, UniProt P04626, S310F); assay: Activity for inhibiting HER2 (Table B), HER2 S310F; details: read-out: HER2 S310F, potency code (IC50)
T3 construct: expressed in transfected cells; host or cells: BaF3 (murine pro-B)
T3 sequence (P04626 23-1255 S310F): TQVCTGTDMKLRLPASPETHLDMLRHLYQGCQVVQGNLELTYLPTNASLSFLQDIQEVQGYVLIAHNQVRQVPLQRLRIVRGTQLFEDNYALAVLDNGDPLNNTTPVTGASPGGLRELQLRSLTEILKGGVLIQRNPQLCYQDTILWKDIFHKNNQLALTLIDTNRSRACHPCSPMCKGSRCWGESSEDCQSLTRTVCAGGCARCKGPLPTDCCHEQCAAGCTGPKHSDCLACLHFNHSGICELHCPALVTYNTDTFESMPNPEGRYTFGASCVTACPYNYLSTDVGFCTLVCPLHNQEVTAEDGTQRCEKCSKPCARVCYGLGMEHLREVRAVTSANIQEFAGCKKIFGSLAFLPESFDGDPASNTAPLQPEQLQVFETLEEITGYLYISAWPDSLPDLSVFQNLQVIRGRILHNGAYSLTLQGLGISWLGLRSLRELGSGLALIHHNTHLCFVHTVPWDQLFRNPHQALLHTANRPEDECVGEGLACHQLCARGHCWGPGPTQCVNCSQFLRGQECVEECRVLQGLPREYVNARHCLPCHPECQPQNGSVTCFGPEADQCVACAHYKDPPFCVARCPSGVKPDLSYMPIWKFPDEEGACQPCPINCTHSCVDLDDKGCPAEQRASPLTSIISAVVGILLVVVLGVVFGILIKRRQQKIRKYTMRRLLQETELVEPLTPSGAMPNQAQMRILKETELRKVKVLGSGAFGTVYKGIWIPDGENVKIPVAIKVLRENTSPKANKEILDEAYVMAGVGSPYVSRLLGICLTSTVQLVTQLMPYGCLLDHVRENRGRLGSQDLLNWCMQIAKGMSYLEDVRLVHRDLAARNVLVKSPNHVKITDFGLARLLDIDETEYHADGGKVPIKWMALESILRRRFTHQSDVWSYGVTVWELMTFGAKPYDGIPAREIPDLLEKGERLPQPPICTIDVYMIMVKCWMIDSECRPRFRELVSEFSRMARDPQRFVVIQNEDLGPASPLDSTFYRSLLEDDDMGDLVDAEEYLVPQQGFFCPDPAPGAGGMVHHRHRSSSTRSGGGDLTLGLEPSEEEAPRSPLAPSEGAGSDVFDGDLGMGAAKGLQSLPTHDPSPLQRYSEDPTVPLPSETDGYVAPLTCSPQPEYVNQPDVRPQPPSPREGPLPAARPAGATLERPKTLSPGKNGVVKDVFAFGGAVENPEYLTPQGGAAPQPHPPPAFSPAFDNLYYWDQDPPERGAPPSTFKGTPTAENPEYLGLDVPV
Procedure: (§1) EC50 values were determined with the same application.

HER2 YVMA [4] = biological target: T4, HER2 YVMA (Homo sapiens, UniProt P04626, INS775YVMA); assay: Activity for inhibiting HER2 (Table B), HER2 YVMA; details: read-out: HER2 YVMA, potency code (IC50)
T4 construct: expressed in transfected cells; host or cells: BaF3 (murine pro-B)
T4 sequence (P04626 with tags, fused parts or gaps INS775YVMA): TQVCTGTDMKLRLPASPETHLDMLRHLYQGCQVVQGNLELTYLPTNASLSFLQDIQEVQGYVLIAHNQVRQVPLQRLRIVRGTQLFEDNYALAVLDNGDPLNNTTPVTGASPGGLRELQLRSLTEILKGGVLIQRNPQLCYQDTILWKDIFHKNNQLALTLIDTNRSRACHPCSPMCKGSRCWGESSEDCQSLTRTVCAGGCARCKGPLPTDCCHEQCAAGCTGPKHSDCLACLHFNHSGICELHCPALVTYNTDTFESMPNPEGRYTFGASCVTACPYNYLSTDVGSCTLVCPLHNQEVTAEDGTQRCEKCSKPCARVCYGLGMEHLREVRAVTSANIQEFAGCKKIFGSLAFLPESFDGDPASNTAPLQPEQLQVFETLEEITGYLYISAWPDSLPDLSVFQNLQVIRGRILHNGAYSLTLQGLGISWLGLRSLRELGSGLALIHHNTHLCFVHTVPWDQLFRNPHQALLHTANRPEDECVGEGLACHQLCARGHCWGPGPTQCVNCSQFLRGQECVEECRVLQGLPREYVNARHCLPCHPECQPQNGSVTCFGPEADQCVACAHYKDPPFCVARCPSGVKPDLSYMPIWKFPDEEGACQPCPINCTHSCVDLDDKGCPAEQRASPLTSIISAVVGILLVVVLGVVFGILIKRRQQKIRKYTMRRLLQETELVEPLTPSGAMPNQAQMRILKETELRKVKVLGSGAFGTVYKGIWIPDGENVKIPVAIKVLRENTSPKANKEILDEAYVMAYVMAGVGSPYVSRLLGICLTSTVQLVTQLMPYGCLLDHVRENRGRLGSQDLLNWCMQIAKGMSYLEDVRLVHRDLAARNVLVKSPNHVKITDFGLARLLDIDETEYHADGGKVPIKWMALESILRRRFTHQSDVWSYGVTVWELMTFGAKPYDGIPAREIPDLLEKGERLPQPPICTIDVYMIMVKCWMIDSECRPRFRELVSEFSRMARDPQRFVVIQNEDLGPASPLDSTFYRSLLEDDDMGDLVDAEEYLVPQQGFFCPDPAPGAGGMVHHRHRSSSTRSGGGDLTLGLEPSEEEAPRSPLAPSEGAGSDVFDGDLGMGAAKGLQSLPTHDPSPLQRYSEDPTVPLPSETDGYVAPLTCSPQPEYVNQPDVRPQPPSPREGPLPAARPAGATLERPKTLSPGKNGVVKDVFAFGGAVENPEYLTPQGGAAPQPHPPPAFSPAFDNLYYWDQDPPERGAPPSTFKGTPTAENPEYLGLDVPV
Procedure: as §1

EGFR WT [5] = biological target: T1, EGFR WT; assay: BaF3 cell proliferation assay, EGFR WT (Table A); details: potency code, 3 days, CellTiterGlo, read-out: EGFR WT (Activity for Inhibiting EGFR)
Procedure: (§2) Retroviral Production: EGFR mutants were subcloned into pMXs-IRES-Blasticidin (RTV-016, Cell Biolabs, San Diego, Calif.). Retroviral expression vector retrovirus was produced by transient transfection of HEK 293T cells with the retroviral EGFR mutant expression vector pMXs-IRES-Blasticidin (RTV-016, Cell Biolabs), pCMV-Gag-Pol vector and pCMV-VSV-G-Envelope vector. Briefly, HEK 293T/17 cells were plated in 100 mm collagen coated plate (354450, Corning Life Sciences, Tewksbury, Mass.) (4×10^5 per plate) and incubated overnight. The next day, retroviral plasmids (3 μg of EGFR mutant, 1.0 μg of pCMV-Gag-Pol and 0.5 μg pCMV-VSV-G) were mixed in 500 μl of Optimem (31985, Life Technologies). The mixture was incubated at room temperature for 5 min and then added to Optimem containing transfection reagent Lipofectamine (11668, Invitrogen) and incubated for 20 minutes. Mixture was then added dropwise to HEK 293T cells. The next day the medium was replaced with fresh culture medium and retrovirus was harvested @ 24 and 48 hrs.
(§3) Generation of EGFR mutant stable cell lines: BaF3 cells (1.5E5 cells) were infected with 1 ml of viral supernatant supplemented with 8 μg/ml polybrene by centrifuging for 30 min at 1000 rpm. Cells were placed in a 37° C. incubator overnight. Cells were then spun for 5 minutes to pellet the cells. Supernatant was removed and cells re-infected a fresh 1 ml of viral supernatant supplemented with 8 μg/ml polybrene by centrifuging for 30 min at 1000 rpm. Cells were placed in 37° C. incubator overnight. […] After 48 hours cells were selected for retroviral infection in 10 μg/ml Blasticidin for one week. Blasticidin resistant populations were washed twice in phosphate buffered saline before plating in media lacking IL-3 to select for IL-3 independent growth.
as §1

EGFR V3 [6] = biological target: T2, EGFR V3; assay: BaF3 cell proliferation assay, EGFR V3 (Table A); details: potency code, 3 days, CellTiterGlo, read-out: EGFR V3 (Activity for Inhibiting EGFR)
Procedure: as §2, §3, §1

HER2 S310F [7] = biological target: T3, HER2 S310F; assay: BaF3 cell proliferation assay, HER2 S310F (Table B); details: potency code, 3 days, CellTiterGlo, read-out: HER2 S310F (Activity for Inhibiting HER2)
HER2 YVMA [8] = biological target: T4, HER2 YVMA; assay: BaF3 cell proliferation assay, HER2 YVMA (Table B); details: potency code, 3 days, CellTiterGlo, read-out: HER2 YVMA (Activity for Inhibiting HER2)

T1 sequence (P00533 25-1210 N540K): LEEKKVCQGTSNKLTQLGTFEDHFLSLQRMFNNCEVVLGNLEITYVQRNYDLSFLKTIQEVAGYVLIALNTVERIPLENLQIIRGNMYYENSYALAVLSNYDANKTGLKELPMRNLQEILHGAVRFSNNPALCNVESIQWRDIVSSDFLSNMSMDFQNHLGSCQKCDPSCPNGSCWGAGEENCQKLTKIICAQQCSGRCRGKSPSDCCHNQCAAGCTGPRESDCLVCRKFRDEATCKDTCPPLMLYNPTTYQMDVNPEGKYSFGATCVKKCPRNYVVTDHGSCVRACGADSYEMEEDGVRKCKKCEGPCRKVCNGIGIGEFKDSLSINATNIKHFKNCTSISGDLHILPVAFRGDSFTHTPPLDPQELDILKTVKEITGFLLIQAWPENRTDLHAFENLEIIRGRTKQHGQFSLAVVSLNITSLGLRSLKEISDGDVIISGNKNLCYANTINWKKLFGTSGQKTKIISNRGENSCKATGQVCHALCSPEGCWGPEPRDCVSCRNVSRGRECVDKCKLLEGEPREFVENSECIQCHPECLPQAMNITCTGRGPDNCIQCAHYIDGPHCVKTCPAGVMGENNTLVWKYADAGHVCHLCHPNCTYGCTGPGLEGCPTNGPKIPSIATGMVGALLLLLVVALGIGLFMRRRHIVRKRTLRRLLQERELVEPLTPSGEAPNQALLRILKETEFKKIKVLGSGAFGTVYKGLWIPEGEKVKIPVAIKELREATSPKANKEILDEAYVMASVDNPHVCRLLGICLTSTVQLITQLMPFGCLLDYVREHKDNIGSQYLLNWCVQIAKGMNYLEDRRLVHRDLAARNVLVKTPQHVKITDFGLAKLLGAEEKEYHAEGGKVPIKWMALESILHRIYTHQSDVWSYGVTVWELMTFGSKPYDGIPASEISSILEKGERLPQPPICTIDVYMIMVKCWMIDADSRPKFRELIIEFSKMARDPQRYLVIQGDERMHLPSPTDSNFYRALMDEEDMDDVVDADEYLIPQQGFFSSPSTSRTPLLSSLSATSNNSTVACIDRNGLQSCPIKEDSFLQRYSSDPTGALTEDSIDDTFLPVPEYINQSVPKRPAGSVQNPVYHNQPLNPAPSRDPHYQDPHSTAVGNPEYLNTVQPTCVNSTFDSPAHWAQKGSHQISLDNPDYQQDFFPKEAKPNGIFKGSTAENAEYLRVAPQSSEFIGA

| SMILES | IC50 (EGFR WT [1]) [nM] | IC50 (EGFR V3 [2]) [nM] | IC50 (HER2 S310F [3]) [nM] | IC50 (HER2 YVMA [4]) [nM] | IC50 (EGFR WT [5]) [nM] | IC50 (EGFR V3 [6]) [nM] | IC50 (HER2 S310F [7]) [nM] | IC50 (HER2 YVMA [8]) [nM] |
| --- | --- | --- | --- | --- | --- | --- | --- | --- |
| C=CC(=O)Nc1cc2c(Nc3ccc(OCc4cccc(OC(F)(F)F)n4)c(Cl)c3)ncnc2cc1OCCN1CCOCC1 [compound 24] | > 1000 | 200 to 300 | 200 to 300 | 300 to 500 | > 1000 | 200 to 300 | 200 to 300 | 300 to 500 |
| C=CC(=O)Nc1cc2c(Nc3ccc(OCc4ccccn4)c(Cl)c3)ncnc2cc1N1CC2(CN(C)C2)C1 [compound 45] | 500 to 1000 | 200 to 300 | 300 to 500 | > 1000 | 500 to 1000 | 200 to 300 | 300 to 500 | > 1000 |
| C=CC(=O)Nc1cc2c(Nc3ccc(OCc4ccccn4)c(Cl)c3)ncnc2cc1N1CC2(CCN2C)C1 [compound 50] | > 1000 | 30 to 50 | 200 to 300 | > 1000 | > 1000 | 30 to 50 | 200 to 300 | > 1000 |
| C=CC(=O)Nc1cc2c(Nc3ccc(OCc4ccccn4)c(Cl)c3)ncnc2cc1OCCN(C)C1CC1 [compound 53] | > 1000 | 30 to 50 | 30 to 50 | 100 to 200 | > 1000 | 30 to 50 | 30 to 50 | 100 to 200 |
| C=CC(=O)Nc1cc2c(Nc3ccc(OCc4ccccn4)c(Cl)c3)ncnc2cc1OCC1(N)CC1 [compound 55] | > 1000 | 50 to 100 | 50 to 100 | 200 to 300 | > 1000 | 50 to 100 | 50 to 100 | 200 to 300 |
| C=CC(=O)Nc1cc2c(Nc3ccc(OCc4ccccn4)cn3)ncnc2cc1OC1CCN(C)C1 (stereo not drawn) [compound 61] | > 1000 | 300 to 500 | 300 to 500 | > 1000 | > 1000 | 300 to 500 | 300 to 500 | > 1000 |
| C=CC(=O)Nc1cc2c(Nc3ccc(OCc4ccccn4)c(Cl)c3)ncnc2cc1N1CCC(N(C)C)C1 (stereo not drawn) [compound 64] | > 1000 | 100 to 200 | 300 to 500 | > 1000 | > 1000 | 100 to 200 | 300 to 500 | > 1000 |
| C=CC(=O)Nc1cc2c(Nc3ccc(OCc4ccccn4)nc3)ncnc2cc1OCCN1CCOCC1 [compound 71] | 500 to 1000 | 50 to 100 | 200 to 300 | > 1000 | 500 to 1000 | 50 to 100 | 200 to 300 | > 1000 |
| C=CC(=O)Nc1cc2c(Nc3ccc(OCc4ccccn4)nc3)ncnc2cc1O[C@@H]1CCN(C)C1 [compound 72] | > 1000 | 300 to 500 | 300 to 500 | > 1000 | > 1000 | 300 to 500 | 300 to 500 | > 1000 |

Second part, the compound after the results:

| IC50 (EGFR WT [1]) [nM] | IC50 (EGFR V3 [2]) [nM] | IC50 (HER2 S310F [3]) [nM] | IC50 (HER2 YVMA [4]) [nM] | IC50 (EGFR WT [5]) [nM] | IC50 (EGFR V3 [6]) [nM] | IC50 (HER2 S310F [7]) [nM] | IC50 (HER2 YVMA [8]) [nM] | SMILES |
| --- | --- | --- | --- | --- | --- | --- | --- | --- |
| 500 to 1000 | 50 to 100 | 30 to 50 | 300 to 500 | 500 to 1000 | 50 to 100 | 30 to 50 | 300 to 500 | C=CC(=O)Nc1cc2c(Nc3ccc(Oc4ccc(C)nc4)c(C)c3)ncnc2cc1OCCN1CCOCC1 [compound 73] |
| > 1000 | 100 to 200 | 100 to 200 | 300 to 500 | > 1000 | 100 to 200 | 100 to 200 | 300 to 500 | C=CC(=O)Nc1cc2c(Nc3ccc(Oc4cccnc4)cc3)ncnc2cc1OCCN1CCOCC1 [compound 75] |
| 200 to 300 | 50 to 100 | 30 to 50 | 100 to 200 | 200 to 300 | 50 to 100 | 30 to 50 | 100 to 200 | C=CC(=O)Nc1cc2c(Nc3ccc(OCc4ccccn4)c(Cl)c3)ncnc2cc1OCCN1CCC(N(C)C)CC1 [compound 76] |
| 100 to 200 | 50 to 100 | 20 to 30 | 100 to 200 | 100 to 200 | 50 to 100 | 20 to 30 | 100 to 200 | C=CC(=O)Nc1cc2c(Nc3ccc(OCc4ccccn4)c(Cl)c3)ncnc2cc1OCCN1CC2CN(C)CC2C1 (stereo not drawn) [compound 77] |
| 300 to 500 | 50 to 100 | 100 to 200 | > 1000 | 300 to 500 | 50 to 100 | 100 to 200 | > 1000 | C=CC(=O)Nc1cc2c(Nc3ccc(OCc4ccccn4)cc3)ncnc2cc1OCC1COCCN1 (stereo not drawn) [compound 79] |
| 100 to 200 | 50 to 100 | 50 to 100 | 500 to 1000 | 100 to 200 | 50 to 100 | 50 to 100 | 500 to 1000 | C=CC(=O)Nc1cc2c(Nc3ccc(OCc4ccccn4)cc3)ncnc2cc1OCCN1CCC(N(C)C)CC1 [compound 80] |
| 500 to 1000 | 300 to 500 | 50 to 100 | 500 to 1000 | 500 to 1000 | 300 to 500 | 50 to 100 | 500 to 1000 | C=CC(=O)Nc1cc2c(Nc3ccc(Oc4ccc(C)nc4)c(C)c3)ncnc2cc1C#CC(C)(C)N(C)C [compound 82] |
| 500 to 1000 | 50 to 100 | 10 to 20 | 100 to 200 | 500 to 1000 | 50 to 100 | 10 to 20 | 100 to 200 | C=CC(=O)Nc1cc2c(Nc3ccc(OCc4ccccn4)c(Cl)c3)ncnc2cc1C#CC1CCCN1 (stereo not drawn) [compound 83, N-(4-((3-chloro-4-(pyridin-2-ylmethoxy)phenyl)amino)-7-(pyrrolidin-2-ylethynyl)quinazolin-6-yl)acrylamide] |
| 500 to 1000 | 100 to 200 | 20 to 30 | 100 to 200 | 500 to 1000 | 100 to 200 | 20 to 30 | 100 to 200 | C=CC(=O)Nc1cc2c(Nc3ccc(OCc4ccccn4)c(Cl)c3)ncnc2cc1C#C[C@H]1CCNC1 [compound 86, N-(4-((3-chloro-4-(pyridin-2-ylmethoxy)phenyl)amino)-7-(pyrrolidin-3-ylethynyl)quinazolin-6-yl)acrylamide] |
| > 1000 | 100 to 200 | 30 to 50 | 200 to 300 | > 1000 | 100 to 200 | 30 to 50 | 200 to 300 | C=CC(=O)Nc1cc2c(Nc3ccc(OCc4ccccn4)c(Cl)c3)ncnc2cc1C#C[C@@H]1CCCN1C [compound 87, N-(4-((3-chloro-4-(pyridin-2-ylmethoxy)phenyl)amino)-7-((1-methylpyrrolidin-2-yl)ethynyl)quinazolin-6-yl)acrylamide] |
| 500 to 1000 | 30 to 50 | 10 to 20 | 100 to 200 | 500 to 1000 | 30 to 50 | 10 to 20 | 100 to 200 | C=CC(=O)Nc1cc2c(Nc3ccc(OCc4ccccn4)c(Cl)c3)ncnc2cc1C#CC(C)(C)NC [compound 88, N-(4-((3-chloro-4-(pyridin-2-ylmethoxy)phenyl)amino)-7-(3-methyl-3-(methylamino)but-1-yn-1-yl)quinazolin-6-yl)acrylamide] |
| 50 to 100 | 30 to 50 | 10 to 20 | 50 to 100 | 50 to 100 | 30 to 50 | 10 to 20 | 50 to 100 | CC#CC(=O)Nc1cc2c(Nc3ccc(OCc4ccccn4)c(Cl)c3)ncnc2cc1C#CC(C)(C)N1CCN(C)CC1 [compound 89, N-(4-((3-chloro-4-(pyridin-2-ylmethoxy)phenyl)amino)-7-(3-methyl-3-(4-methylpiperazin-1-yl)but-1-yn-1-yl)quinazolin-6-yl)but-2-ynamide] |

— US11034672B1, “Tyrosine kinase inhibitor compositions, methods of making and methods of use” (Black Diamond Therapeutics, Inc., priority 2018, dated 2021)
